Results reported in patent US8833363B2, “Ejection liquid, ejection method, method for forming liquid droplets, liquid ejection cartridge and ejection apparatus” (Canon Kabushiki Kaisha, priority 2004, dated 2014).

System: Wister rats
Assay: Confirmation of pharmacological activity: blood glucose level of rats after subcutaneous injection
Type: in vivo, rat
Details: 1.6 U/kg, 15, 30, 60 and 120 minutes after injection
Description: After anesthetic, Nembutal, was injected to Wister rats (male, 8 week-old, weight: about 250 g) fasted for one day, blood was taken from the tail vein. This is used as a base (control). […] The resultant liquid droplets were collected and subcutaneously injected into the rats in a dose of 1.6 U/kg. Blood was taken from the tail vein 15, 30, 60 and 120 minutes after the injection. The blood samples thus taken were centrifugally separated and the blood glucose levels of the obtained serums were analyzed (one group consisting of 6 rats). The same experiment was performed by using an insulin solution having no additives and not ejected in accordance with the thermal inkjet system as a Comparative Example.

For “insulin: insulin solution having no additives and not ejected in accordance with the thermal inkjet system (Comparative Example of Example 25)”, the “effect in reducing blood glucose level” value was “swiftly decreased”.
